These results are taken from PMC6658998, “Pharmacological characterization of the seven human NOX isoforms and their inhibitors” (Redox Biology, 2019).

In data set [1] the target is T1, NOX3 (Homo sapiens, UniProt Q9HBY0).
T1 sequence (Q9HBY0 1-568): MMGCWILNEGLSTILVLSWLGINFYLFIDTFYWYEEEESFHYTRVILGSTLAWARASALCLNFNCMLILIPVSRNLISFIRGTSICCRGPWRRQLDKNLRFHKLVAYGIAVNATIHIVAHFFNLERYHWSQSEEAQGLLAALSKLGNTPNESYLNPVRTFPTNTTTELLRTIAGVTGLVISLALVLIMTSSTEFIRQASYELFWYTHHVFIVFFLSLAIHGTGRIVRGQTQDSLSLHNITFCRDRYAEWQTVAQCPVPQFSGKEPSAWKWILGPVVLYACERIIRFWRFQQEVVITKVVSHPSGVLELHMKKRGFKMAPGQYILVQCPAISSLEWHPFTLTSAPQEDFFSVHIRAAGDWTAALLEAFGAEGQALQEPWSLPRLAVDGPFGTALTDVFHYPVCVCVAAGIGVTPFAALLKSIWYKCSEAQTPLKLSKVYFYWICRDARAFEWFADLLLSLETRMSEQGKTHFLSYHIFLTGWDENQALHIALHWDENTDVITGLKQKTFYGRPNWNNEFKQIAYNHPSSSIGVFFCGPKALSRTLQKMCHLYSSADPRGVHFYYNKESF
T1 sequence (P13498 1-195 partner): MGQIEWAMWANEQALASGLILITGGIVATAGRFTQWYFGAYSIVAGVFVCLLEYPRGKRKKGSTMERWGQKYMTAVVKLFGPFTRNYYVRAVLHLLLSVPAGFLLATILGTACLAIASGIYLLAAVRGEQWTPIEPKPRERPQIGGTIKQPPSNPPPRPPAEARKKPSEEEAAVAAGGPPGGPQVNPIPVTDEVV
T1 sequence (Q8NFA2 1-376 partner): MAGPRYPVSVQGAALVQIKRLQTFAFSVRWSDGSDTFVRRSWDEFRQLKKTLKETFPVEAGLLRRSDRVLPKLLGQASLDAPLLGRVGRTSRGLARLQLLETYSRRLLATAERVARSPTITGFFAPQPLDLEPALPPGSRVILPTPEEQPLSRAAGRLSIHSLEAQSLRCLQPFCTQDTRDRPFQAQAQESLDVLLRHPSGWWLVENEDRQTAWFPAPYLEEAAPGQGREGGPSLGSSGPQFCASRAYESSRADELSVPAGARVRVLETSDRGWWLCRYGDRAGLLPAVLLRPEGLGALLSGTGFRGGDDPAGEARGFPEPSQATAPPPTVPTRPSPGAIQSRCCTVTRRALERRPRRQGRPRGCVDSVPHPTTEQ
The experiment in a line: Amplex Red/HRP H2O2 detection in tetracycline-induced NOX3 HEK293 T-REx cells. It is filed as cell-based. The source says: (§1) Compounds were dispensed prior addition of cells.

Data set [2] addresses T1, NOX3. The experiment in a line: WST-1 O2•- detection in tetracycline-induced NOX3 HEK293 T-REx cells. The data set is classed as cell-based.
Text: as §1

In the next data set the target is T2, DUOX1 (Homo sapiens, UniProt Q9NRD9).
T2 construct: expressed in transfected cells; host or cells: HEK293, selected with G418 and zeocin
The experiment in a line: Amplex Red/HRP H2O2 detection in DUOX1-expressing HEK293 cells. It is filed as cell-based.

Another data set concerns the target T3, DUOX2 (Homo sapiens, UniProt Q9NRD8).
T3 construct: expressed in transfected cells; host or cells: HEK293, selected with G418 and zeocin
The data set is described as follows: Amplex Red/HRP H2O2 detection in DUOX2-expressing HEK293 cells. It is filed as cell-based. Conditions: PMA 0.1 μM and ionomycin 1 μM, read-out: IC50 DUOX2 (HEK) AR.

The next data set deals with T4, NOX2 (Homo sapiens, UniProt P04839).
T4 sequence (P04839 2-570 limits assumed): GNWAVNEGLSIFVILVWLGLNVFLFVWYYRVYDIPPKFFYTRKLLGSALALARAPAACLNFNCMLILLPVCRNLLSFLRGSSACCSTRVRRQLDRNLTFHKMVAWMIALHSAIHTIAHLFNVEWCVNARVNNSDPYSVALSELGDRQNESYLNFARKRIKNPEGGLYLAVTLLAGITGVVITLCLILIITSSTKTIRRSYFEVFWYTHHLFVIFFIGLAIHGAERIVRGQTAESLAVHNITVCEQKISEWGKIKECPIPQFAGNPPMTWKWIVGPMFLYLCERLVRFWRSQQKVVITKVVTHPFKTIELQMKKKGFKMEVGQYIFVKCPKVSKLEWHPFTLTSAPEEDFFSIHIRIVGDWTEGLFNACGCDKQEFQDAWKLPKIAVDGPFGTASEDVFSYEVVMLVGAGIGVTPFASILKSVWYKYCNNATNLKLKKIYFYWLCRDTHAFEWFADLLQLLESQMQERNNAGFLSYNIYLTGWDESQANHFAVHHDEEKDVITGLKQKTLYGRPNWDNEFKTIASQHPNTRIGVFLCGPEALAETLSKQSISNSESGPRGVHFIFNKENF
T4 sequence (P13498 1-195 partner): T1 sequence (P13498 1-195 partner)
The data set is described as follows: NOX2-dependent oxygen consumption in PMA-activated human neutrophils (Seahorse). The data set is classed as cell-based. Conditions: 100 nM PMA. The protocol:
Human polymorphonuclear leukocytes (PMN) were isolated from fresh whole blood collected from healthy volunteers as described. Briefly, 32 mL blood was collected in 8 mL sodium citrate (3.8%) and blood cells sedimented for 40 min with dextran T500 (4% in NaCl 0.9%). The upper yellowish fraction containing leukocytes was collected and centrifugated at 380×g for 10 min. Pellets were resuspended in PBS and separated using Ficoll Plaque™ Plus (450 ×g , with no brake) for 15 min, RT. Red blood cells were lysed by addition of 5 mL H2O for 30 s followed by addition of 5 mL NaCl 1.8%. Remaining PMN were collected by centrifugation for 10 min at 250 ×g , washed and resuspended in HBSS, counted and kept on ice for a maximum of 30 min until they were used for oxygen consumption measurement.
Oxygen consumption was determined using human neutrophils and NOX4 T-Rex HEK293 cells using the Seahorse XF24 Extracellular Flux Analyzer. Neutrophils were plated in 24-well microplates (250,000 cells/well in 200 μL HBSS) and incubated at room temperature for 15 min for attachment. The medium was changed to DMEM without sodium bicarbonate containing 10 mM Hepes prewarmed to 37 °C, and the cells were incubated for 30 min at 37 °C in a non-CO2 incubator. Basal oxygen consumption was recorded for 8 min followed by addition of compounds and 8 min preincubation. PMA (100 nM) was added where indicated and the oxygen consumption rate was determined for two cycles of 8 min each. The signal obtained from neutrophils without PMA treatment was subtracted as a blank, while the signal obtained from PMA + DMSO-treated neutrophils was considered as 100%.

The next data set can be described thus: in vitro. Conditions: human.
The mark [3] stands for this setting: Amplex red/HRP, tetracycline 1 μg/mL 24 h, read-out: IC50 NOX3 (T-REx) AR.
[4] abbreviates: WST-1, tetracycline 1 μg/mL 24 h, read-out: IC50 NOX3 (T-REx) WST-1.
Setting [5] is: Amplex red/HRP, PMA 0.1 μM and ionomycin 1 μM, read-out: IC50 DUOX1 (HEK) AR.

Where two headings read alike, the source gives them in different places.

T3 sequence (Q9NRD8 26-1548): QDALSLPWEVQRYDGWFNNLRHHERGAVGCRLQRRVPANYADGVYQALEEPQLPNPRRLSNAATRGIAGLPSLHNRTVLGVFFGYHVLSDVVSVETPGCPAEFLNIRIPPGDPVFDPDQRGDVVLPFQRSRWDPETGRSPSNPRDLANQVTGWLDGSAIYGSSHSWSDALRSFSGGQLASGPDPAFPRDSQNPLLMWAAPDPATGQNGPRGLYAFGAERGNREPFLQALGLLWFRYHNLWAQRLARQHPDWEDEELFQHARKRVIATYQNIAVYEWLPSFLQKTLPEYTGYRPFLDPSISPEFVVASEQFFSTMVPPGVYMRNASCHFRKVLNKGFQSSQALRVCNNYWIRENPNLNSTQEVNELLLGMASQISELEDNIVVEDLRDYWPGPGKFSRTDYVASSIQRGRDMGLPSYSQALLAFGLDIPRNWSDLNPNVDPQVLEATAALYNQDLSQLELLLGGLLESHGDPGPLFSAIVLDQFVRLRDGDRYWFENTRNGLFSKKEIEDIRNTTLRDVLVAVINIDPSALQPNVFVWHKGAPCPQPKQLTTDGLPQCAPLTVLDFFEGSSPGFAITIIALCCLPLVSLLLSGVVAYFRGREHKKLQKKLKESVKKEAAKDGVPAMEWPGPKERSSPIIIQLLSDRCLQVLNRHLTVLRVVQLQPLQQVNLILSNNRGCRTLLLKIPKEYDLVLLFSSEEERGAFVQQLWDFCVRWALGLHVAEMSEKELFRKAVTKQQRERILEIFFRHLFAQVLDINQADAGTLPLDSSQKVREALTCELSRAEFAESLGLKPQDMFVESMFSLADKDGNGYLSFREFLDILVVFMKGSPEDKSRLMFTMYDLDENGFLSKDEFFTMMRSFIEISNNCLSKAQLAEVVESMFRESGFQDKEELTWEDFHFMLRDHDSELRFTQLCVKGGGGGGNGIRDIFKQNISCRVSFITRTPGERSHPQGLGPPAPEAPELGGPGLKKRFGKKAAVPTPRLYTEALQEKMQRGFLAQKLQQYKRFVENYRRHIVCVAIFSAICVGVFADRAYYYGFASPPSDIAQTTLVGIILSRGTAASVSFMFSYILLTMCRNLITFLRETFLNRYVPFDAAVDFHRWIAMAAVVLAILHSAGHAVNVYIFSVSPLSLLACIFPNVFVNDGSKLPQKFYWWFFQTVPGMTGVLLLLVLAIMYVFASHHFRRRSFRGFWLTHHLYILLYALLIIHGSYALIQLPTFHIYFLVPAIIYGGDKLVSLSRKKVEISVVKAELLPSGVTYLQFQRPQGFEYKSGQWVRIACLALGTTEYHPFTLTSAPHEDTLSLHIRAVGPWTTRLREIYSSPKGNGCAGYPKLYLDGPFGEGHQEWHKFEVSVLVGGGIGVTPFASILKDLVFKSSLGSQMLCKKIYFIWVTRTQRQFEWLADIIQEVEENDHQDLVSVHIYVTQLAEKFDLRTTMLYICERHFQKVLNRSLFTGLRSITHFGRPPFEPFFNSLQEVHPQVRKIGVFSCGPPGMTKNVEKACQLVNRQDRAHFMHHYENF
T3 sequence (Q1HG44 whole entry partner): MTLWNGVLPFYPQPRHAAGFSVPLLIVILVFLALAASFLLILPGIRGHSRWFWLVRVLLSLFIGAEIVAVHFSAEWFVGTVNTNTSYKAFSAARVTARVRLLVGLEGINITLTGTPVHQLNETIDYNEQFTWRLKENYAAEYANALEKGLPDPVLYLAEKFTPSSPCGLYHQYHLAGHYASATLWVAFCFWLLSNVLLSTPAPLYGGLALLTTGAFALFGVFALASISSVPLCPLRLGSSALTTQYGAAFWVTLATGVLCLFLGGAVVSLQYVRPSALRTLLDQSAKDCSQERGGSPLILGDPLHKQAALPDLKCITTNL
T2 sequence (Q9NRD9 22-1551): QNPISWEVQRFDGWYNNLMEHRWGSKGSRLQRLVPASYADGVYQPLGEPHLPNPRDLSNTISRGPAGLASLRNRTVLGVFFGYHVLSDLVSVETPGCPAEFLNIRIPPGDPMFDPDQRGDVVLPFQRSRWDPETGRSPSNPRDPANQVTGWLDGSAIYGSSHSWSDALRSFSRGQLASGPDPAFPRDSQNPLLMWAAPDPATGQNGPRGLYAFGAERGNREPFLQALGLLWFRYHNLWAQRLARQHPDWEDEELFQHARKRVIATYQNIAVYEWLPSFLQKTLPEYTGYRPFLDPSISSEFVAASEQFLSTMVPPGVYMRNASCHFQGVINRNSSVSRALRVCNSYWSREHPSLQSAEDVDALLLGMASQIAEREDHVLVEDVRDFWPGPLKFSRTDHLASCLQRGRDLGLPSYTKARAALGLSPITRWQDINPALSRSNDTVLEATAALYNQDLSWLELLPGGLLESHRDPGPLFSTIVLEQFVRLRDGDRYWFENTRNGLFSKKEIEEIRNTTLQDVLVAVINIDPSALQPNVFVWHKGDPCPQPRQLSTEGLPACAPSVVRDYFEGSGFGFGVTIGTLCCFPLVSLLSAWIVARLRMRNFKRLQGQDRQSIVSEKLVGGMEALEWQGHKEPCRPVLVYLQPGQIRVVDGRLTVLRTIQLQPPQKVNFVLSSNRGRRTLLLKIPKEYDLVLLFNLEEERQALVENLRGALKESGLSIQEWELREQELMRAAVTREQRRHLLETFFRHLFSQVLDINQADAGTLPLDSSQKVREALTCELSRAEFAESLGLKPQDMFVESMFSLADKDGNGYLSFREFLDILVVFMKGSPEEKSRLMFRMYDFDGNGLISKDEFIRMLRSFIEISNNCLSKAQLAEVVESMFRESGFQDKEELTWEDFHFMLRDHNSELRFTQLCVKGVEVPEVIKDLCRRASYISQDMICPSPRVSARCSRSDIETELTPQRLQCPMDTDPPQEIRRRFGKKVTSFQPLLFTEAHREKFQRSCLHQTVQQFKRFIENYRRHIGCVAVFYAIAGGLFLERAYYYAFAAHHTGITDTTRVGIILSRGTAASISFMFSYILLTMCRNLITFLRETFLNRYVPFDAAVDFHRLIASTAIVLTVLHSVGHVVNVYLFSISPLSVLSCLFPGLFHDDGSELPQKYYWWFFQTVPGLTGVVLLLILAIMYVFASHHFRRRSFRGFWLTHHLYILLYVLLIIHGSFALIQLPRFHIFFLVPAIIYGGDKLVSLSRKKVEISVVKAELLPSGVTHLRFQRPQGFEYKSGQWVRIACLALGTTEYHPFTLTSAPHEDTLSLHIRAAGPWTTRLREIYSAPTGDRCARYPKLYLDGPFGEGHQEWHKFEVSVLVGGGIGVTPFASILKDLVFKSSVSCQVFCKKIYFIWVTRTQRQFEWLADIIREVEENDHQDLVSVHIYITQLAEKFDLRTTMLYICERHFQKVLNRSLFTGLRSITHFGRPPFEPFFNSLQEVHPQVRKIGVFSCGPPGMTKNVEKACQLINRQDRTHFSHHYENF
T2 sequence (Q1HG43 whole entry partner): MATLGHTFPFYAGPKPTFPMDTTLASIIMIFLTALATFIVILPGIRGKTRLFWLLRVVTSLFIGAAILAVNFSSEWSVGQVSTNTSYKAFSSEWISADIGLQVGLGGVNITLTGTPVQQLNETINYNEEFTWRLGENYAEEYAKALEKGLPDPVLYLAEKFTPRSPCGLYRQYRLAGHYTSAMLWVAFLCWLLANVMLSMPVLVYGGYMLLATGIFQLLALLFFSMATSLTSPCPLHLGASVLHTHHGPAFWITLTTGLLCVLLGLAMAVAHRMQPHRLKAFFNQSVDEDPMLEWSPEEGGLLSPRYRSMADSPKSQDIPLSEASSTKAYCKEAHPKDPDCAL
Method for in vitro: The effect of the compounds on cell viability was obtained using the Calcein-AM assay. […] Cells suspensions were prepared in HBSS. Cells were preincubated at 50,000 cells/well with compounds for 10 min at room temperature before addition of 4 μM Calcein-AM. Then the plate was incubated at 37 °C for 1 h in the dark. Intracellular Calcein fluorescence was measured using Spectramax Paradigm (Molecular Devices) at 485 nm excitation and 520 nm emission.

As for `COc1cc(C(C)=O)cc(-c2cc(C(C)=O)cc(OC)c2O)c1O` [Diapocynin, diapocynin], the 50% inhibitory concentration (IC50) at NOX3 [1] (setting [3]) is above 50 µM; on NOX3 [2] (setting [4]), above 50 µM; at DUOX1 (setting [5]), 13.6 µM; at DUOX2, 21.7 µM. In addition, the “Inhibition of NOX2-dependent oxygen consumption” value (“Inhibition” below) at NOX2 (compound 50 μM) is “only weakly”. In addition, in the data set “in vitro” (HEK/T-REx cells), the CC50 at 1 h is above 50 µM.

Take `Cc1c2c(=O)n(-c3ccccc3Cl)[nH]c2cc(=O)n1Cc1ccccn1` [GKT136901]: the IC50 at NOX3 [1] (setting [3]) was 5.7 µM; on NOX3 [2] (setting [4]) it was above 50 µM; at DUOX1 (setting [5]), 5.9 µM; on DUOX2, 9.8 µM. In addition, the “Inhibition” value on NOX2 (compound 50 μM) is listed as “not”. The CC50 at 1 h in the data set “in vitro” (HEK/T-REx cells) was above 50 µM.

As for `COc1cc(C(C)=O)ccc1O` [Apocynin, apocynin], the IC50 on NOX3 [1] (setting [3]), at NOX3 [2] (setting [4]), at DUOX1 (setting [5]) and at DUOX2 was above 50 µM throughout. Besides, at NOX2 (compound 300 μM), the “Inhibition” value is listed as “only weakly”. In the data set “in vitro”, this compound registered a CC50 at 1 h above 50 µM.

Turning to `O=c1c2ccccc2[se]n1-c1ccccc1` [Ebselen, ebselen], the IC50 at NOX3 [1] (setting [3]) was 2.9 µM; at NOX3 [2] (setting [4]), 35 µM; on DUOX1 (setting [5]), 4.2 µM; on DUOX2 it was 4.2 µM. Also, at NOX2 (concentration not given), the “Inhibition” value is “inhibited”. In “in vitro” (HEK/T-REx cells), this compound showed a CC50 at 1 h of 1.8 µM.

On to `c1ccc(Cn2nnc3c(Sc4nc5ccccc5o4)ncnc32)cc1` [VAS2870, 3-benzyl-7-(2-benzoxazolyl)thio-1,2,3-triazolo[4,5-d]pyrimidine], for which the IC50 at NOX3 [1] (setting [3]) and on NOX3 [2] (setting [4]) was above 50 µM throughout. Besides, the “Inhibition” value on NOX2 (concentration not given) is “inhibited”.

For the compound `c1ccc2c(c1)[I+]c1ccccc1-2` [DPI, diphenylene iodonium chloride], the IC50 at NOX3 [1] turned out to be 2.2 µM; against NOX3 [2], 0.2 µM; at DUOX1, 1.4 µM. Besides, on NOX2 (concentration not given), the “Inhibition” value was “inhibited”. This compound registered a CC50 at 1 h in “in vitro” above 50 µM.
